Experimental data: the supplement of paper PMC10307832

Tests used:
Experiment in all cases: relative viability (nuclei count vs DMSO), 5 days (fraction); higher = more cells survive
A-427 = system: A-427
In short: (§1)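 Five library-drug doses in √10 steps were combined with a fixed anchor-drug dose, or a single drug was given alone, by pin tool to lung cancer cell lines in 1536-well plates the day after seeding. Nuclei were stained and counted after 5 days. Relative viability is the nuclei count in treated wells over that in vehicle wells, taken as the median of duplicate plates.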

COR-L 105 = system: COR-L 105
In short: as §1

H3255 = system: H3255
In short: as §1

HCC-44 = system: HCC-44
In short: as §1

HCC-827 = system: HCC-827
In short: as §1

LCLC-103H = system: LCLC-103H
In short: as §1

LOU-NH91 = system: LOU-NH91
In short: as §1

LXF-289 = system: LXF-289
In short: as §1

NCI-H1792 = system: NCI-H1792
In short: as §1

NCI-H1915 = system: NCI-H1915
In short: as §1

NCI-H1944 = system: NCI-H1944
In short: as §1

NCI-H1975 = system: NCI-H1975
In short: as §1

NCI-H1993 = system: NCI-H1993
In short: as §1

NCI-H2023 = system: NCI-H2023
In short: as §1

NCI-H2087 = system: NCI-H2087
In short: as §1

NCI-H2170 = system: NCI-H2170
In short: as §1

NCI-H358 = system: NCI-H358
In short: as §1

NCI-H520 = system: NCI-H520
In short: as §1

SK-MES-1 = system: SK-MES-1
In short: as §1

SW 1573 = system: SW 1573
In short: as §1

In the case of `Cc1cn(-c2cc(NC(=O)c3ccc(C)c(Nc4nccc(-c5cccnc5)n4)c3)cc(C(F)(F)F)c2)cn1` [Nilotinib] + C[C@@H](Oc1cc(-c2cnn(C3CCNCC3)c2)cnc1N)c1c(Cl)ccc(F)c1Cl [Crizotinib] (partner 1 µM), the relative viability (A-427; first compound 0.001 µM) is reported as 0.715, the relative viability (A-427; first compound 0.01 µM) is reported as 1.25 and the relative viability (A-427; first compound 0.03162 µM) is reported as 0.548. The relative viability (A-427; first compound 0.1 µM) was 0.546, the relative viability (COR-L 105; first compound 0.001 µM) was 0.821 and the relative viability (COR-L 105; first compound 0.01 µM) was 0.796. For the same compound, the relative viability (COR-L 105; first compound 0.03162 µM) was 0.668, the relative viability (COR-L 105; first compound 0.1 µM) was 0.662 and the relative viability (H3255; first compound 0.001 µM) was 0.773. It also gave a relative viability (H3255; first compound 0.003162 µM) of 0.99, a relative viability (H3255; first compound 0.01 µM) of 1.07 and a relative viability (H3255; first compound 0.03162 µM) of 0.814. For the same compound, the relative viability (H3255; first compound 0.1 µM) was 1.11, the relative viability (HCC-44; first compound 0.001 µM) was 0.799 and the relative viability (HCC-44; first compound 0.003162 µM) was 0.978. It also gave a relative viability (HCC-44; first compound 0.01 µM) of 1.01, a relative viability (HCC-44; first compound 0.03162 µM) of 0.717 and a relative viability (HCC-44; first compound 0.1 µM) of 0.754. It also gave a relative viability (HCC-827; first compound 0.001 µM) of 0.936, a relative viability (HCC-827; first compound 0.003162 µM) of 0.954 and a relative viability (HCC-827; first compound 0.01 µM) of 0.893. The relative viability (HCC-827; first compound 0.1 µM) was 0.91, the relative viability (LCLC-103H; first compound 0.003162 µM) was 1.07 and the relative viability (LCLC-103H; first compound 0.03162 µM) was 0.945. It also gave a relative viability (LCLC-103H; first compound 0.1 µM) of 1.08, a relative viability (LOU-NH91; first compound 0.001 µM) of 0.763 and a relative viability (LOU-NH91; first compound 0.003162 µM) of 0.722. For the same compound, the relative viability (LOU-NH91; first compound 0.01 µM) was 0.76, the relative viability (LOU-NH91; first compound 0.03162 µM) was 0.722 and the relative viability (LOU-NH91; first compound 0.1 µM) was 0.768. It also gave a relative viability (LXF-289; first compound 0.001 µM) of 0.806, a relative viability (LXF-289; first compound 0.003162 µM) of 0.885 and a relative viability (LXF-289; first compound 0.01 µM) of 0.923. For the same compound, the relative viability (LXF-289; first compound 0.03162 µM) was 0.731, the relative viability (LXF-289; first compound 0.1 µM) was 0.765 and the relative viability (NCI-H1792; first compound 0.001 µM) was 0.967. It also gave a relative viability (NCI-H1792; first compound 0.01 µM) of 1.15, a relative viability (NCI-H1792; first compound 0.1 µM) of 1.16 and a relative viability (NCI-H1915; first compound 0.001 µM) of 0.73. It also gave a relative viability (NCI-H1915; first compound 0.003162 µM) of 1.18, a relative viability (NCI-H1915; first compound 0.01 µM) of 1.24 and a relative viability (NCI-H1915; first compound 0.03162 µM) of 0.787. The relative viability (NCI-H1915; first compound 0.1 µM) was 0.848, the relative viability (NCI-H1944; first compound 0.001 µM) was 1.18 and the relative viability (NCI-H1944; first compound 0.003162 µM) was 1.24. It also gave a relative viability (NCI-H1944; first compound 0.01 µM) of 1.21, a relative viability (NCI-H1944; first compound 0.03162 µM) of 1.16 and a relative viability (NCI-H1944; first compound 0.1 µM) of 0.939. The relative viability (NCI-H1975; first compound 0.001 µM) was 0.811, the relative viability (NCI-H1975; first compound 0.003162 µM) was 1.11 and the relative viability (NCI-H1975; first compound 0.01 µM) was 1.16. It also gave a relative viability (NCI-H1975; first compound 0.03162 µM) of 0.616, a relative viability (NCI-H1975; first compound 0.1 µM) of 0.907 and a relative viability (NCI-H1993; first compound 0.001 µM) of 0.998. For the same compound, the relative viability (NCI-H1993; first compound 0.003162 µM) was 0.838, the relative viability (NCI-H1993; first compound 0.01 µM) was 0.994 and the relative viability (NCI-H1993; first compound 0.03162 µM) was 0.762. The relative viability (NCI-H1993; first compound 0.1 µM) was 0.887, the relative viability (NCI-H2023; first compound 0.001 µM) was 0.659 and the relative viability (NCI-H2023; first compound 0.003162 µM) was 0.683. It also gave a relative viability (NCI-H2023; first compound 0.01 µM) of 0.852, a relative viability (NCI-H2023; first compound 0.03162 µM) of 0.506 and a relative viability (NCI-H2023; first compound 0.1 µM) of 0.569. It also gave a relative viability (NCI-H2087; first compound 0.001 µM) of 0.626, a relative viability (NCI-H2087; first compound 0.003162 µM) of 0.806 and a relative viability (NCI-H2087; first compound 0.01 µM) of 0.947. For the same compound, the relative viability (NCI-H2087; first compound 0.03162 µM) was 0.702, the relative viability (NCI-H2087; first compound 0.1 µM) was 0.667 and the relative viability (NCI-H2170; first compound 0.001 µM) was 1.12. The relative viability (NCI-H2170; first compound 0.003162 µM) was 1.21, the relative viability (NCI-H2170; first compound 0.01 µM) was 1.61 and the relative viability (NCI-H2170; first compound 0.03162 µM) was 0.915. The relative viability (NCI-H2170; first compound 0.1 µM) was 1.19, the relative viability (NCI-H358; first compound 0.001 µM) was 0.447 and the relative viability (NCI-H358; first compound 0.003162 µM) was 0.473. For the same compound, the relative viability (NCI-H358; first compound 0.01 µM) was 0.407, the relative viability (NCI-H358; first compound 0.03162 µM) was 0.469 and the relative viability (NCI-H358; first compound 0.1 µM) was 0.735. For the same compound, the relative viability (NCI-H520; first compound 0.001 µM) was 0.656, the relative viability (NCI-H520; first compound 0.01 µM) was 0.866 and the relative viability (NCI-H520; first compound 0.03162 µM) was 0.483. It also gave a relative viability (NCI-H520; first compound 0.1 µM) of 0.678, a relative viability (SK-MES-1; first compound 0.003162 µM) of 1.09 and a relative viability (SK-MES-1; first compound 0.01 µM) of 1.06. For the same compound, the relative viability (SK-MES-1; first compound 0.03162 µM) was 0.994, the relative viability (SK-MES-1; first compound 0.1 µM) was 0.982 and the relative viability (SW 1573; first compound 0.001 µM) was 0.798. For the same compound, the relative viability (SW 1573; first compound 0.003162 µM) was 0.882, the relative viability (SW 1573; first compound 0.01 µM) was 0.946 and the relative viability (SW 1573; first compound 0.03162 µM) was 0.826. It also gave a relative viability (SW 1573; first compound 0.1 µM) of 0.823.
